Legend:
[1] = molecular target: human neutrophil elastase (Homo sapiens (Human), UniProt P08246); assay: Chromogenic enzyme activity assay, elastase; type: biochemical; details: for Ki: human neutrophil elastase
human HTRA2 = human HTRA2 (Homo sapiens (Human), UniProt O43464); assay: Chromogenic enzyme activity assay, HTRA2; details: for fold gain in HTRA2 potency relative to Ahp1: compared with Ahp1
bovine pancreas trypsin = bovine pancreas trypsin (Bos taurus (Bovine), UniProt P00760); assay: Chromogenic enzyme activity assay, trypsin; type: biochemical; details: Table 2
Sequence of bovine pancreas trypsin (P00760 24-246): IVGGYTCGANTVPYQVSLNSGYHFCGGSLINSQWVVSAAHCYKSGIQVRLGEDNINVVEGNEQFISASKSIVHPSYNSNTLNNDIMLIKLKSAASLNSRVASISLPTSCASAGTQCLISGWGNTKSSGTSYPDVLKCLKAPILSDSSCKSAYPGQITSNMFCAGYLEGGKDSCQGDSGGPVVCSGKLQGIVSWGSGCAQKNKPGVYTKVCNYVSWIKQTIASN

[2] = molecular target: human pancreas chymotrypsin; assay: Chromogenic enzyme activity assay, chymotrypsin; type: biochemical; details: for Ki: human pancreas chymotrypsin, Table 2
human HTRA3 = human HTRA3 (Homo sapiens (Human), UniProt P83110); assay: Chromogenic enzyme activity assay, HTRA3
Sequence of human HTRA3 (P83110 111-436): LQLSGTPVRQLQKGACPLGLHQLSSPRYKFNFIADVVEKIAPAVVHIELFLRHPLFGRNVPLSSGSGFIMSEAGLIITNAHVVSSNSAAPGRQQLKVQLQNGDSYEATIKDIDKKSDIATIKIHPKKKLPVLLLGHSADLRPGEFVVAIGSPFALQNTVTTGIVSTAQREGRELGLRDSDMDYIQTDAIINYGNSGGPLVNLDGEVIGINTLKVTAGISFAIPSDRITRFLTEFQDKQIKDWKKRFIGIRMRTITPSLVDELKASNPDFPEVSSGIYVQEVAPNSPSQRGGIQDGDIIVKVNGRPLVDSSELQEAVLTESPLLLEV

human HTRA1 = human HTRA1 (Homo sapiens (Human), UniProt Q92743); assay: Chromogenic enzyme activity assay, HTRA1
Sequence of human HTRA1 (Q92743 158-480): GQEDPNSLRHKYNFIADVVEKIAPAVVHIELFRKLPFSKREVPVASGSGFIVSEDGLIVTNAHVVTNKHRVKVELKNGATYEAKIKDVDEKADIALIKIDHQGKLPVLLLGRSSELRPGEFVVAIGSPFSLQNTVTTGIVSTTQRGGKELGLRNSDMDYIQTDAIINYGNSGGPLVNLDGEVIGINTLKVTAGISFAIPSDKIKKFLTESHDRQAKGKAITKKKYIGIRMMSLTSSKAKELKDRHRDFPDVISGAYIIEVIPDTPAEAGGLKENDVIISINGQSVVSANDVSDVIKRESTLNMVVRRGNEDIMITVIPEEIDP

[3] = tested on: human bone marrow-derived stromal cells (hBMSCs); assay: HTRA1-mediated hBMSC osteogenesis, matrix mineralization by Alizarin Red S staining; type: cell-based; details: 10 μM compound, with HTRA1 or inactive HTRA1 S328A
Experimental: Human BMSCs (hBMSCs) (Lonza Verviers, Belgium) were maintained in normal growth medium consisting of Dulbecco's modified eagle medium (DMEM-low glucose, with Glutamax) (Thermo Fisher Scientific, Reinach, Switzerland), supplemented with 10% fetal bovine serum (FBS) (Bioswisstec, Schaffhausen, Switzerland) and penicillin (50 units mL^−1) and streptomycin (50 μg mL^−1), and used between passage 2 and 6. The osteogenic differentiation of hBMSCs was performed as previously described in the art. Briefly, hBMSCs were seeded at 10′000 cells cm-2 in 24-well cell culture plates, and incubated for up to 14 days in osteogenic medium consisting of normal growth medium supplemented with ascorbic acid (50 μM), β-glycerophosphate (10 mM) and dexamethasone (100 nM) (all from Sigma-Aldrich, Buchs, Switzerland). Cells were replenished with fresh medium every 3-4 days. […] Mineralized matrix deposition by hBMSC-derived bone forming cells was visualized using Alizarin Red S, and the amount of staining quantified by determining the absorption at 570 nm using a multiplate reader (Infinite M200, Tecan) following extraction with 10% cetylpyridinium chloride (Sigma-Aldrich).

Sequence of human neutrophil elastase (P08246 30-267): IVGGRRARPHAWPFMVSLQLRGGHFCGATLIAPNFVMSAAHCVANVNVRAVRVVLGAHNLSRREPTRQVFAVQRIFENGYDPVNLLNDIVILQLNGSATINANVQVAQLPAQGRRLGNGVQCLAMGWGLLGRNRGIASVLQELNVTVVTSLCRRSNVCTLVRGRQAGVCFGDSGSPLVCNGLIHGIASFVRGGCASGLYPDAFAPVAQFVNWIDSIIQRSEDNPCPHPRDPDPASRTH
Sequence of human HTRA2 (O43464 134-458): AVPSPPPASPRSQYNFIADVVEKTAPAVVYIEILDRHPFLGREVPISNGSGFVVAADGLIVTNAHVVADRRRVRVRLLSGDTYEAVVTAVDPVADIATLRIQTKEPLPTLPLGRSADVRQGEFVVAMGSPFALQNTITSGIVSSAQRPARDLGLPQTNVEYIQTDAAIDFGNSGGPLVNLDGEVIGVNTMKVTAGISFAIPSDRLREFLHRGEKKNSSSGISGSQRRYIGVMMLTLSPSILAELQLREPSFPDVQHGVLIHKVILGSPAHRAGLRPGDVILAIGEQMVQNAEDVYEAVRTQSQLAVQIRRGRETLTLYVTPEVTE

Row | Compound | Ki ([1]; Table 2) [µM] | HTRA2 inhibition, in words (human HTRA2) | Ki (human HTRA2) [µM] | fold gain in HTRA2 potency relative to Ahp1 (human HTRA2) | Ki (bovine pancreas trypsin) [µM] | Ki [2] [µM] | Ki (human HTRA3) [µM] | Ki (human HTRA1) [µM] | HTRA3 inhibition, in words (human HTRA3) | elastase inhibition, in words [1] | chymotrypsin inhibition, in words [2] | HTRA1 inhibition, in words (human HTRA1) | Ki ([1]; Table 3) [µM] | inhibition of HTRA1-mediated hBMSC osteogenesis (matrix mineralization) [3]
1 | CC(C)C[C@H]1C(=O)N(C)[C@@H](Cc2ccccc2)C(=O)N[C@@H](C(C)C)C(=O)O[C@H](C)[C@H](NC(=O)[C@H](Cc2ccccc2)NC(=O)[C@H](C)NC(=O)OCc2ccccc2)C(=O)N[C@@H](C(C)C)C(=O)N[C@H]2CC[C@@H](O)N1C2=O [Ahp4] | 0.33 ± 0.06 | sub-μM inhibition potencies | 0.49 ± 0.11 | more than ten-fold | > 50 | > 50 | > 50 | > 50 | – | – | – | – | – | –
2 | CC(C)C[C@H]1C(=O)N(C)[C@@H](Cc2ccccc2)C(=O)N[C@@H](C(C)C)C(=O)O[C@H](C(C)C)[C@H](NC(=O)[C@H](C)NC(=O)CCc2ccccc2)C(=O)N[C@@H](C(C)C)C(=O)N[C@H]2CC[C@@H](O)N1C2=O [Ahp11] | – | moderate inhibition | – | – | – | – | – | – | moderate inhibition | – | – | – | – | –
3 | CC(C)C[C@H]1C(=O)N(C)[C@@H](Cc2ccccc2)C(=O)N[C@@H](C(C)C)C(=O)O[C@H](c2ccccc2)[C@H](NC(=O)[C@H](C)NC(=O)[C@H](C)NC(=O)OCc2ccccc2)C(=O)N[C@@H](C(C)C)C(=O)N[C@H]2CC[C@@H](O)N1C2=O [Ahp3] | 0.21 ± 0.06 | – | 0.27 ± 0.07 | – | > 50 | > 50 | 3.1 ± 0.6 | > 50 | inhibited | – | – | – | – | –
4 | CC(C)C[C@H]1C(=O)N(C)[C@@H](Cc2ccccc2)C(=O)N[C@@H](C(C)C)C(=O)O[C@H](C)[C@H](NC(=O)[C@H](C)NC(=O)[C@H](C)NC(=O)OCc2ccccc2)C(=O)N[C@@H](Cc2ccccc2)C(=O)N[C@H]2CC[C@@H](O)N1C2=O [Ahp2] | – | significantly reduced | – | – | – | 0.37 ± 0.08 | – | – | significantly reduced | significantly reduced | enhanced chymotrypsin inhibition | significantly reduced | – | –
5 | CC(C)C[C@H]1C(=O)N(C)[C@@H](C)C(=O)N[C@@H](C(C)C)C(=O)O[C@H](C)[C@H](NC(=O)[C@H](C)NC(=O)[C@H](C)NC(=O)OCc2ccccc2)C(=O)N[C@@H](C(C)C)C(=O)N[C@H]2CC[C@@H](O)N1C2=O [Ahp7] | – | – | – | – | > 50 | > 50 | – | – | – | low μM or even sub-μM | – | – | – | –
6 | CC(C)C[C@H]1C(=O)N(C)[C@@H](Cc2ccccc2)C(=O)N[C@@H](C(C)C)C(=O)O[C@H](C)[C@H](NC(=O)[C@H](C)NC(=O)[C@H](C)NC(=O)OCc2ccccc2)C(=O)N[C@@H](C(C)(C)C)C(=O)N[C@H]2CC[C@@H](O)N1C2=O [Ahp20] | – | – | > 50 | – | – | – | 8.3 | > 50 | – | – | – | – | 4.32 | –
7 | CC(C)C[C@H]1C(=O)N(C)[C@@H](Cc2ccccc2)C(=O)N[C@@H](C(C)C)C(=O)O[C@H](C)[C@H](NC(=O)[C@H](C)NC(=O)[C@H](C)NC(=O)OCc2ccccc2)C(=O)N[C@@H](C)C(=O)N[C@H]2CC[C@@H](O)N1C2=O [Ahp13] | – | enhanced inhibitory activity | – | – | – | – | – | – | enhanced inhibitory activity | – | – | enhanced inhibitory activity | – | –
8 | CC(C)C[C@@H]1NC(=O)[C@@H](NC(=O)[C@H](C)NC(=O)[C@H](C)NC(=O)OCc2ccccc2)[C@@H](C)OC(=O)[C@H](C(C)C)NC(=O)[C@H](Cc2ccccc2)N(C)C(=O)[C@H](CC(C)C)N2C(=O)[C@H](CC[C@H]2O)NC1=O [Ahp9] | – | slightly better HTRA2 inhibitory properties than Ahp1 | – | – | – | – | – | – | – | – | – | – | – | –
9 | CC(C)C[C@H]1C(=O)N(C)[C@@H](Cc2ccccc2)C(=O)N[C@@H](C(C)C)C(=O)O[C@H](C(C)C)[C@H](NC(=O)[C@H](C)NC(=O)[C@H](C)NC(=O)OCc2ccccc2)C(=O)N[C@@H](C(C)C)C(=O)N[C@H]2CC[C@@H](O)N1C2=O [Ahp10] | – | sub-μM Ki | – | 15 fold | > 50 | > 50 | – | – | – | lowered the Ki | – | lowered the Ki | – | significantly inhibited
10 | CC(C)C[C@H]1C(=O)N(C)[C@@H](Cc2ccccc2)C(=O)N[C@@H](C(C)C)C(=O)O[C@H](C)[C@H](NC(=O)[C@H](C)NC(=O)[C@H](C)NC(=O)OCc2ccccc2)C(=O)N[C@@H](C(C)C)C(=O)N[C@H]2CC[C@@H](O)N1C2=O [Ahp1] | – | – | – | – | > 50 | > 50 | – | – | inhibited | – | – | inhibited | – | –
11 | CC[C@@H]1NC(=O)[C@@H](NC(=O)[C@H](C)NC(=O)[C@H](C)NC(=O)OCc2ccccc2)[C@@H](C)OC(=O)[C@H](C(C)C)NC(=O)[C@H](Cc2ccccc2)N(C)C(=O)[C@H](CC(C)C)N2C(=O)[C@H](CC[C@H]2O)NC1=O [Ahp14] | – | enhanced inhibitory activity | – | – | – | – | – | – | enhanced inhibitory activity | – | – | enhanced inhibitory activity | – | –
12 | CC(C)C[C@H]1C(=O)N(C)[C@@H](Cc2ccccc2)C(=O)N[C@@H](Cc2ccccc2)C(=O)O[C@H](C)[C@H](NC(=O)[C@H](C)NC(=O)[C@H](C)NC(=O)OCc2ccccc2)C(=O)N[C@@H](C(C)C)C(=O)N[C@H]2CC[C@@H](O)N1C2=O [Ahp8] | 0.32 ± 0.05 | – | 2.3 ± 0.2 | – | > 50 | > 50 | 9.5 ± 0.9 | > 50 | inhibited | – | – | – | – | –
13 | CC(C)[C@@H]1NC(=O)[C@@H](NC(=O)[C@H](C)NC(=O)[C@H](C)NC(=O)OCc2ccccc2)[C@@H](C)OC(=O)[C@H](C(C)C)NC(=O)[C@H](Cc2ccccc2)N(C)C(=O)[C@H](Cc2ccccc2)N2C(=O)[C@H](CC[C@H]2O)NC1=O [Ahp6] | 8 ± 1.8 | – | 2.1 ± 0.3 | – | > 50 | > 50 | > 50 | 10.3 ± 3 | – | – | – | inhibited | – | –
14 | CC(C)C[C@H]1C(=O)N(C)[C@@H](Cc2ccccc2)C(=O)N[C@@H](C(C)C)C(=O)O[C@H](C)[C@H](NC(=O)[C@H](C)NC(=O)[C@H](C)NC(=O)OCc2ccccc2)C(=O)N[C@@H](C2CC2)C(=O)N[C@H]2CC[C@@H](O)N1C2=O [Ahp19] | – | enhanced inhibitory activity | 1.11 | – | – | – | 0.74 | 1.24 | enhanced inhibitory activity | – | – | enhanced inhibitory activity | 1.93 | –

From patent US11149067B2, “Tailored cyclodepsipeptides as potent non-covalent serine protease inhibitors” (UNIVERSITÄT DUISBURG-ESSEN, priority 2017, dated 2021)
